Patent US20090076120A1, “Crystal of Aminopyrrolidine Derivative and Production Method Thereof” (TEIJIN PHARMA LIMITED, priority 2005, published 2009)
“Also recorded” adds a separate entry of the source.

What was measured:
[1] = Storage stability comparison in a thermostatic chamber (HPLC purity, XRD crystal form); assay type: physicochemical; details: for Purity: HPLC
From the text: Crystal A, crystal B and amorphous form of (R)-3-[2-(2-amino-5-trifluoromethoxybenzamido)acetamido]-1(6-methylindol-3-ylmethyl)pyrrolidine in the amount of 1.50 g, 1.50 g and 0.30 g, respectively were each placed in a transparent glass vial. They were simply covered by filter paper and kept in a thermostatic chamber. Samples were serially extracted for HPLC analysis and the appearance was also observed. Transition of crystal form was monitored by XRD analysis at the point of 163 hrs (only for crystals A and B) and 15 days (for all the samples) from the start. The “time” means storage time. The “temperature” is the preset temperature of the thermostatic chamber used for the storage, which was jumped up at 163 hrs from the start.

[2] = Transition of crystal B into crystal A in ethanol/water suspension (HPLC, XRD); assay type: physicochemical; details: crystal A versus crystal B
Procedure: Five grams of (R)-3-[2-(2-amino-5-trifluoromethoxybenzamido)acetamido]-1-(6-methylindol-3-ylmethyl)pyrrolidine was suspended in 232 mL of ethanol/water (1.22/1), and the suspension was stirred for 3 hours in an oil bath at 20° C. The precipitated crystals were filtered off and dried at 50° C. under reduced pressure. Yield Amount: 4.25 g (yield: 85%)
HPLC pattern and XRD diagram were measured to confirm that the resulting crystal was crystal A of (R)-3-[2-(2-amino-5-trifluoromethoxybenzamido)acetamido]-1-(6-methylindol-3-ylmethyl)pyrrolidine.

[3] = storage 163 hrs at 40 °C (temperature then raised 40 to 60 °C)
[4] = storage 192 hrs, 60 °C from 163 hrs
[5] = storage 240 hrs, 60 °C from 163 hrs
[6] = storage 15 days, 60 °C from 163 hrs
[7] = storage time: initial value, 40 °C, glass vial covered by filter paper

Row | Purity ([1]; storage 24 hrs, 40 °C) | Purity ([1]; storage 71 hrs, 40 °C) | Purity ([1]; storage 144 hrs, 40 °C) | Crystal form (XRD) [1, 3] | Purity [1, 4] | Purity [1, 5] | Crystal form (XRD) [1, 6] | Purity [1, 6] | Purity [1, 7] | Relative stability of the two crystal forms [2] | SMILES | Storage stability (degradation), in words ([1]; conclusion from Table 5)
1 | 98.89% | 98.88% | 98.80% | Crystal A | 98.82% | 98.82% | Crystal A | 98.75% | 98.79% | higher than that of crystal B | Cc1ccc2c(CN3CC[C@@H](NC(=O)CNC(=O)c4cc(OC(F)(F)F)ccc4N)C3)c[nH]c2c1 [Crystal A, (R)-3-[2-(2-amino-5-trifluoromethoxybenzamido)acetamido]-1-(6-methylindol-3-ylmethyl)pyrrolidine] | –
2 | 99.22% | 99.31% | 99.22% | Crystal B | 99.28% | 99.19% | Crystal B | 99.28% | 99.20% | – | Cc1ccc2c(CN3CC[C@@H](NC(=O)CNC(=O)c4cc(OC(F)(F)F)ccc4N)C3)c[nH]c2c1 [Crystal B, (R)-3-[2-(2-amino-5-trifluoromethoxybenzamido)acetamido]-1-(6-methylindol-3-ylmethyl)pyrrolidine] | –
3 | 97.78% | 97.55% | 97.25% | – | 95.88% | 94.33% | amorphous | 91.14% | 98.03% | – | Cc1ccc2c(CN3CC[C@@H](NC(=O)CNC(=O)c4cc(OC(F)(F)F)ccc4N)C3)c[nH]c2c1 [amorphous form, (R)-3-[2-(2-amino-5-trifluoromethoxybenzamido)acetamido]-1-(6-methylindol-3-ylmethyl)pyrrolidine] | degradation of amorphous form; also recorded: less storage stability compared to the crystal forms
